Test results as given in patent US12263192B2, “Compositions for management of disorders of the gastrointestinal tract” (PanTheryx, Inc., priority 2019, dated 2025).

How the values were obtained:
RIE cells = assay: Cell proliferation assay in RIE cells; assay type: cell-based, rat; details: vs SFM, standard colostrum or ZnC
Experimental: Human gastrointestinal cells (AGS cells) or rat intestinal epithelial cells (RIE cells) are seeded at 2000 cells/well in an appropriate growth medium containing glutamine and 10% foetal calf serum in 96 well plates overnight. The following day, cells are washed twice with serum-free medium and then incubated in serum-free medium alone (SFM negative control) or also containing colostrum at various concentrations or epidermal growth factor (EGF, positive control) overnight. The following day ALAMARBLUE™ is added to each well. ALAMARBLUE™ is a coloured substrate that changes colour from blue to pink in response to cellular metabolic reduction. This change can be determined by reading the absorbance of the wells at 570 nm using a spectrophotometer at 0 h when the substrate is added and 4 hours later.

rotavirus = details: pediatric patients; 3 day course; 7.5 mg/kg suspension; cited from earlier work
[1] = system: rotavirus infection in MA-104 cells; details: cited from earlier work
AGS cells [2] = assay: Proliferation assay (ALAMARBLUE) of egg and/or colostrum, Example 8A; assay type: cell-based, human
Experimental: Cell proliferation assays were performed as previously described, utilising ALAMARBLUETM (Invitrogen, Paisley, UK), (Marchbank et al., Am J Physiol Gastrointest Liver Physiol. 2009; 296:[…]-703) as per manufacturer's instructions. Briefly, cells were seeded at 2000 cells/well, grown in medium and 10% FCS in 96 well plates overnight. The following day, cells were washed with medium alone and incubated in medium alone (negative control), medium containing epidermal growth factor (EGF, 1 μg/ml, positive control) or egg and colostrum combination. BSA was added to additional wells as a further negative control. Data are expressed as % positive control where the rise in proliferation (increase in A570 above baseline) caused by […] of EGF was defined as 100%. Whole powdered egg and colostrum (0.25-4 mg/ml) was added to cells and effect on proliferation and cell migration analysed. Additional studies compared “pure” yolk and egg white powder (1 mg powder/ml) along with separated yolk and white from fresh eggs (added at same protein concentration as equivalent powder) and also compared uncooked egg powder and whole fresh egg that had been heated to 100° C. for 8 minutes (samples placed in 50 ml falcon tube in waterbath, followed by homogenisation) prior to addition to cells. […] This 40:60 proportion was used to reproduce the product currently commercially available and used in trials of infectious diarrhoea. Gaensbauer et al. BMJ Glob Health. 2017; 2:e000452. The importance of the EGFR and TGFβ in mediating proliferative and migratory effects was examined by adding whole egg powder (1 mg/ml, w/v) to cells in the presence and absence of tyrphostin (100 nM) and a TGFβ ([…]) neutralising antibody (antibodies-online.com, Aachen, Germany). Additional samples examined the effect of pure ovomucoid (25-100 μg/ml) and ovalbumin (50-400 μg/ml) on proliferation and migration. To further examine the contribution of ovomucoid and ovalbumin in mediating the proliferative and migratory activity seen using whole egg powder, further wells had egg powder added (1 mg/ml) in the presence of anti-ovomucoid and ovalbumin antibodies (Generon, Slough, Berkshire, UK) at 1 μg/ml.

AGS cells [3] = assay: Cell migration assay (wounded monolayers) of egg and/or colostrum, Example 8A; assay type: cell-based, human; details: purified protein
Experimental: Cell migration assays were performed using our previously published methods. Marchbank et al., Am J Physiol Gastrointest Liver Physiol. 2009; 296:[…]-703. Briefly, confluent monolayers had standard wounds inflicted and serial photomicrographs taken. Twenty measurements per field were performed by placing a transparent grid over the photograph and measuring the distance moved from the original wound line. All results are expressed as mean (SEM) of four separate experiments. Whole powdered egg and colostrum (0.25-4 mg/ml) was added to cells and effect on proliferation and cell migration analysed. Additional studies compared “pure” yolk and egg white powder (1 mg powder/ml) along with separated yolk and white from fresh eggs (added at same protein concentration as equivalent powder) and also compared uncooked egg powder and whole fresh egg that had been heated to 100° C. for 8 minutes (samples placed in 50 ml falcon tube in waterbath, followed by homogenisation) prior to addition to cells. […] This 40:60 proportion was used to reproduce the product currently commercially available and used in trials of infectious diarrhoea. Gaensbauer et al. BMJ Glob Health. 2017; 2:e000452. […]

these cell lines = details: cited from earlier work

Molecule: zinc carnosine
- cell proliferation (A570 nm), comparison in words (RIE cells): stimulate cell proliferation

Molecule: CC(=O)Oc1ccccc1C(=O)Nc1ncc([N+](=O)[O-])s1 [Nitazoxanide]
- duration of rotavirus disease (rotavirus): effective to reduce the duration of rotavirus disease

Molecule: O=c1cc(-c2ccc(O)c(O)c2)oc2cc(O)cc(O)c12 [luteolin]
- antiviral activity against rotavirus infection [1]: antiviral activity

Molecule: O=c1cc(-c2ccc(O)cc2)oc2cc(O[C@@H]3O[C@H](CO)[C@@H](O)[C@H](O)[C@H]3O)cc(O)c12 [apigenin 7-O-glucoside]
- antiviral activity against rotavirus infection [1]: antiviral activity

Molecule: ovalbumin: purified ovalbumin, 42 kDa egg white protein
- effect on proliferation and migration (AGS cells [2]; pure isolated ovalbumin at 400 µg/mL): major stimulatory effect
- cell proliferation dose-response, in words (AGS cells [2]; purified protein, 50-400 μg/ml): increasing activity up to the highest dose
- cell migration dose-response, in words (AGS cells [3]; 50-400 μg/ml): increasing activity up to the highest dose

Molecule: soya bean trypsin inhibitor
- proliferation or migration (these cell lines): does not increase proliferation or migration

B1: ovomucoid: purified ovomucoid, 28 kDa egg white protein with trypsin inhibitor activity (protein, UniProt P01005 25-210, looked up)
Ovomucoid: AEVDCSRFPNATDKEGKDVLVCNKDLRPICGTDGVTYTNDCLLCAYSIEFGTNISKEHDGECKETVPMNCSSYANTTSEDGKVMVLCNRAFNPVCGTDGVTYDNECLLCAHKVEQGASVDKRHDGGCRKELAAVSVDCSEYPKPDCTAEDRPLCGSDNKTYGNKCNFCNAVVESNGTLTLSHFGKC
- share of total proliferative and migratory activity of whole egg (AGS cells [2]; from neutralising antibody studies): about 80%
- concentration of peak effect, cell proliferation (AGS cells [2]; purified protein, dose-response 25-100 μg/ml): 50 µg/mL
- concentration of peak effect, cell migration (AGS cells [3]; dose-response 25-100 μg/ml): 50 µg/mL
